According to the NIST ThermoML archive (doi:10.1016/j.jct.2008.12.010):

Assay: xn = mol fraction of the nth substance listed
Settings: for speed of sound / mass density: Liquid; for speed of sound: Linear variable-path acoustic interferometer; for mass density: Vibrating tube method; for surface tension liquid-gas: Drop volume

Cc1ccc(C)cc1 [1,4-dimethylbenzene] + CCCCCCCCCC
Settings | mass density [kg/m3] | speed of sound [m/s] | surface tension liquid-gas [mN/m]
288.15 K, x1 = 0.1092 | 742.78 | 1276.2 | –
288.15 K, x1 = 0.1984 | 750.98 | 1278.7 | –
288.15 K, x1 = 0.3105 | 762.21 | 1282.7 | –
288.15 K, x1 = 0.3427 | 765.62 | 1284.1 | –
288.15 K, x1 = 0.4919 | 782.82 | 1292.3 | –
288.15 K, x1 = 0.5438 | 789.38 | 1295.8 | –
288.15 K, x1 = 0.5995 | 796.78 | 1300.1 | –
288.15 K, x1 = 0.7293 | 815.71 | 1312.2 | –
288.15 K, x1 = 0.7829 | 824.32 | 1318.2 | –
288.15 K, x1 = 0.8993 | 844.93 | 1333.7 | –
288.15 K, x1 = 0.9499 | 854.78 | 1341.9 | –
293.15 K, x1 = 0.1092 | 739.03 | 1256.7 | –
293.15 K, x1 = 0.1984 | 747.15 | 1259 | –
293.15 K, x1 = 0.3427 | 761.75 | 1264.3 | –
293.15 K, x1 = 0.4919 | 778.88 | 1272.3 | –
293.15 K, x1 = 0.5438 | 785.41 | 1275.7 | –
293.15 K, x1 = 0.5995 | 792.78 | 1279.9 | –
293.15 K, x1 = 0.7293 | 811.62 | 1291.8 | –
293.15 K, x1 = 0.7829 | 820.21 | 1297.8 | –
293.15 K, x1 = 0.8993 | 840.73 | 1312.9 | –
293.15 K, x1 = 0.9499 | 850.54 | 1320.9 | –
293.18 K, x1 = 0.3105 | 758.36 | 1262.9 | –
298.15 K, x1 = 0.09726 | – | – | 23.21
298.15 K, x1 = 0.1092 | 735.23 | 1236.5 | –
298.15 K, x1 = 0.1984 | 743.31 | 1238.7 | –
298.15 K, x1 = 0.2 | – | – | 23.4
298.15 K, x1 = 0.2959 | – | – | 23.61
298.15 K, x1 = 0.3105 | 754.46 | 1242.7 | –
298.15 K, x1 = 0.3427 | 757.83 | 1244 | –
298.15 K, x1 = 0.4047 | – | – | 23.89
298.15 K, x1 = 0.4919 | 774.88 | 1251.8 | –
298.15 K, x1 = 0.4998 | – | – | 24.23
298.15 K, x1 = 0.5374 | – | – | 24.37
298.15 K, x1 = 0.5438 | 781.38 | 1255.3 | –
298.15 K, x1 = 0.5995 | 788.72 | 1259.3 | –
298.15 K, x1 = 0.6024 | – | – | 24.66
298.15 K, x1 = 0.6962 | – | – | 25.15
298.15 K, x1 = 0.7293 | 807.48 | 1271.1 | –
298.15 K, x1 = 0.7829 | 816.03 | 1276.9 | –
298.15 K, x1 = 0.8025 | – | – | 25.73
298.15 K, x1 = 0.8914 | – | – | 26.33
298.15 K, x1 = 0.8993 | 836.47 | 1291.9 | –
298.15 K, x1 = 0.9499 | 846.25 | 1299.8 | –
298.15 K, x1 = 0.9503 | – | – | 26.79
303.15 K, x1 = 0.1092 | 731.39 | 1216.6 | –
303.15 K, x1 = 0.1984 | 739.42 | 1218.8 | –
303.15 K, x1 = 0.3105 | 750.53 | 1222.5 | –
303.15 K, x1 = 0.3427 | 753.87 | 1223.9 | –
303.15 K, x1 = 0.4919 | 770.85 | 1231.6 | –
303.15 K, x1 = 0.5438 | 777.33 | 1235 | –
303.15 K, x1 = 0.5995 | 784.63 | 1239 | –
303.15 K, x1 = 0.7293 | 803.32 | 1250.6 | –
303.15 K, x1 = 0.7829 | 811.82 | 1256.3 | –
303.15 K, x1 = 0.8993 | 832.18 | 1271.3 | –
303.15 K, x1 = 0.9499 | 841.92 | 1278.9 | –
